How the values were obtained:
[1] = test system: SUM-149PT breast xenograft; assay: In vivo tumor efficacy, SUM-149PT breast xenograft model; parameters: species or system Balb/c Nude mice; conditions: PO
Experimental: SUM-149PT (5×10^6) is a tumor cell line grown in Ham's F12 (BD Biosciences) media with 5% FBS, supplemented with 5 μg/ml insulin and 1 μg/ml hydrocortisone media mixed with an equal volume of Matrigel (BD Biosciences). Cell suspension at passage 84 was aseptically injected into the subcutaneous space in the right dorsal flank of Balb/c Nude mice (age 8 weeks, Shanghai SINO-British SIPPR/BK Lab Animal Ltd.) using a 25-gauge needle.
(§1) MLN8237 was formulated in 10% HPbCD+1% NaHCO3 and administered by oral injection (1 cc syringe, 20-22 gauge, oral gavages needle) on QD schedule at 3 mg/kg and 20 mg/kg for 21 days. MLN8237 as used in the experimental section refers to sodium 4-{[9-chloro-7-(2-fluoro-6-methoxyphenyl)-5H-pyrimido[5,4-d][2]benzazepin-2-yl]amino}-2-methoxybenzoate monohydrate and the amount referenced is the amount of alisertib dosed. MLN8237 is dosed 24 hours prior to MLN0128 in all three models.
(§2) MLN0128 is formulated in 100% PEG400 and administered by oral injection (1 cc syringe, 20-22 gauge, oral gavages needle) on QD schedule at 0.3 mg/kg for 21 days. 1 mg/kg QD×3/weeks for 3 weeks. MLN0128 is dosed 24 hours after MLN8237 dosing.
(§3) Tumors are measured twice weekly using a vernier caliper. Tumor volumes are calculated using standard procedures (0.5×(length×width^2)). When the tumors reached a volume of approximately 200 mm^3 (PHTX-14B, PHTX-147B) or 167 mm^3 (SUM-149PT), mice are randomized into groups of 8 as described in the tables below, and dosed with vehicle, MLN8237 or MLN0128 or the combination of MLN8237 with MLN0128, at various doses as described below in Tables 8a-10a. Tumor size and body weight are measured approximately twice a week for the duration of the study. Mice are euthanized when their tumor volume reached 10% of their body weight, or when the average tumor volume of a treatment or control group reached approximately 2000 mm^3. Tumor growth continued to be monitored after the dosing period in some studies. Average tumor volume is reported as a function of time for selected groups of selected studies in FIGS. 3, 4 and 5.
(§4) Measurements from day 0 to 21 are analyzed as specified in Tables 8a-10a. All tumor volumes have a value of 1 added to them before log10 transformation. For each animal, the log tumor volume at day 0 is subtracted from the log tumor volume on the subsequent days. This difference vs. time is used to calculate an area under the curve (AUC) for each animal using the trapezoid rule. In instances when an animal in a treatment group is removed early from the study, the last observed tumor value is carried forward through all subsequent time points. The synergy score for the combination of agents A and B is defined as: 100*(mean(AUCAB)−mean(AUCA)−mean(AUCB)+mean(AUCctl))/mean(AUCctl): where AUCAB, AUCA, AUCB, and AUCctl are the AUC values for animals in the combination group, the A group, the B group, and the control group, respectively. The standard error of the synergy score is computed based on the variation in the AUC values among the animals. […] If the P-value is above 0.05, then the combination is considered to be additive. If the P-value is below 0.05, and the synergy score is less than zero, then the combination is considered to be synergistic. […] Otherwise, the combination is classified as antagonistic.

[2] = test system: PHTX-14B breast xenograft; assay: In vivo tumor efficacy, PHTX-14B breast xenograft model; parameters: species or system female Balb/c nude mice; conditions: for Average tumor volume at day 21: PO
Description: The PHTX-14B breast xenograft model was established from a patient-derived tumor collected during surgery from a person with ductal carcinoma classified as triple negative breast cancer (ER−/PR−/Her2−) by IHC. PHTX-14B tumor fragments (approximately 2×2×3 mm^3) at passage 7 are implanted into the subcutaneous space in the right dorsal flank of female Balb/c nude mice (age 4-6 weeks, Shanghai SINO-British SIPPR/BK Lab Animal Ltd) using a 13-gauge trocar tumor implantation needle.
as §1, §2, §3, §4

[3] = test system: PHTX-147B breast xenograft; assay: In vivo tumor efficacy, PHTX-147B breast xenograft model; parameters: species or system female Balb/c nude mice; conditions: PO
Description: The PHTX-147B breast xenograft model was established from a patient-derived tumor collected during surgery from a person with ductal carcinoma classified as triple negative breast cancer (ER−/PR−/Her2−) by IHC. PHTX-147B tumor fragments (approximately 2×2×3 mm^3) at passage 7 are implanted into the subcutaneous space in the right dorsal flank of female Balb/c nude mice (age 4-6 weeks, Shanghai SINO-British SIPPR/BK Lab Animal Ltd.).
as §1, §2, §3, §4

[4] = MLN0128 alone at 0.3 mg/kg, QD×21
[5] = MLN8237 alone at 3 mg/kg, QD×21
[6] = MLN8237 alone at 20 mg/kg, QD×21

CC(C)n1nc(-c2ccc3oc(N)nc3c2)c2c(N)ncnc21 [MLN0128, 3-(2-amino-1,3-benzoxazol-5-yl)-1-(propan-2-yl)-1H-pyrazolo [3,4-d] pyrimidin-4-amine]
Average tumor volume at day 21 ([1]; 0.3 mg/kg MLN0128, QD): 524.5 mm^3
Average tumor volume at day 21 ([1]; 1 mg/kg MLN0128, QD × 3/week): 696.8 mm^3
effect on growth of SUM149PT xenografts [1, 4]: significantly delayed the growth
effect on growth of SUM149PT xenografts ([1]; MLN0128 alone at 1.0 mg/kg, QD×3/wk×3 weeks): only responded lightly
Average tumor volume at day 21 ([2]; 0.3 mg/kg MLN0128, QD): 539.1 mm^3
Average tumor volume at day 21 ([2]; 1 mg/kg MLN0128, QD × 3/week): 475.6 mm^3
effect on growth of PHTX-14B xenografts ([2]; MLN0128 at 0.3 mg/kg alone, QD×21): significantly delayed growth
effect on growth of PHTX-14B xenografts ([2]; MLN0128 at 1.0 mg/kg alone): significantly delayed growth
Average tumor volume at day 21 ([3]; 0.3 mg/kg MLN0128, QD): 1354.1 mm^3
Average tumor volume at day 21 ([3]; 1 mg/kg MLN0128, QD × 3/week): 974.8 mm^3
effect on growth of PHTX-147B xenografts [3, 4]: responded moderately
effect on growth of PHTX-147B xenografts ([3]; MLN0128 alone at 1.0 mg/kg, QD×3/wk×3): significantly delayed the growth

COc1cc(Nc2ncc3c(n2)-c2ccc(Cl)cc2C(c2c(F)cccc2OC)=NC3)ccc1C(=O)[O-].O.[Na+] [MLN8237, sodium 4-{[9-chloro-7-(2-fluoro-6-methoxyphenyl)-5H-pyrimido[5,4-d][2]benzazepin-2-yl]amino}-2-methoxybenzoate monohydrate]
Average tumor volume at day 21 ([1]; 3 mg/kg MLN8237, QD): 613.4 mm^3
Average tumor volume at day 21 ([1]; 20 mg/kg MLN8237, QD): 451.6 mm^3
effect on growth of SUM149PT xenografts [1, 5]: significantly delayed the growth
effect on growth of SUM149PT xenografts [1, 6]: significantly delayed the growth
Average tumor volume at day 21 ([2]; 3 mg/kg MLN8237, QD): 795.1 mm^3
Average tumor volume at day 21 ([2]; 20 mg/kg MLN8237, QD): 533.9 mm^3
antitumor activity in PHTX-14B xenografts ([2]; MLN8237 at 3 mg/kg alone, QD×21): limited and not significant
effect on growth of PHTX-14B xenografts ([2]; MLN8237 at 20 mg/kg alone, QD×21): significantly delayed growth
Average tumor volume at day 21 ([3]; 3 mg/kg MLN8237, QD): 1951.9 mm^3
Average tumor volume at day 21 ([3]; 20 mg/kg MLN8237, QD): 1694.9 mm^3
effect on PHTX-147B xenograft growth [3, 5]: only slight or no effect
effect on PHTX-147B xenograft growth [3, 6]: only slight or no effect

Source: patent publication US9724354B2, “Combination of catalytic mTORC1/2 inhibitors and selective inhibitors of Aurora A kinase” (Millennium Pharmaceuticals, Inc., priority 2013, dated 2017)
